Legend:
Format in all cases: functional
[1] = tested on: IGROV-1; test: Growth inhibition of human IGROV1 cells assessed as cell growth at 0.003 uM incubated for 48 hrs by sulforhodamine B assay relative to control; settings: IGROV-1, 48 h, read-out: Activity
[2] = tested on: HCT-15; test: Growth inhibition of human HCT15 cells assessed as cell growth at 0.03 uM incubated for 48 hrs by sulforhodamine B assay relative to control; settings: HCT-15, 48 h, read-out: Activity
[3] = tested on: SR; test: Growth inhibition of human SR cells assessed as cell growth at 0.3 uM incubated for 48 hrs by sulforhodamine B assay relative to control; settings: read-out: Activity
[4] = tested on: HCT-116; test: Growth inhibition of human HCT116 cells assessed as cell growth at 0.3 uM incubated for 48 hrs by sulforhodamine B assay relative to control; settings: HCT-116, 48 h, read-out: Activity
[5] = tested on: CCRF-CEM; test: Growth inhibition of human CCRF-CEM cells assessed as cell growth at 3 uM incubated for 48 hrs by sulforhodamine B assay relative to control; settings: read-out: Activity
[6] = tested on: COLO 205; test: Growth inhibition of human COLO205 cells assessed as cell growth at 3 uM incubated for 48 hrs by sulforhodamine B assay relative to control; settings: COLO 205, 48 h, read-out: Activity
[7] = tested on: SK-MEL-2; test: Growth inhibition of human SK-MEL-2 cells assessed as cell growth at 3 uM incubated for 48 hrs by sulforhodamine B assay relative to control; settings: SK-MEL-2, 48 h, read-out: Activity
[8] = tested on: UO-31; test: Growth inhibition of human UO31 cells assessed as cell growth at 3 uM incubated for 48 hrs by sulforhodamine B assay relative to control; settings: UO-31, 48 h, read-out: Activity
[9] = tested on: NCI-H226; test: Growth inhibition of human NCI-H226 cells assessed as cell growth at 30 uM incubated for 48 hrs by sulforhodamine B assay relative to control; settings: NCI-H226, 48 h, read-out: Activity
[10] = tested on: MDA-MB-435; test: Growth inhibition of human MDA-MB-435 cells assessed as cell growth at 30 uM incubated for 48 hrs by sulforhodamine B assay relative to control; settings: MDA-MB-435, 48 h, read-out: Activity
[11] = tested on: SK-MEL-5; test: Growth inhibition of human SK-MEL-5 cells assessed as cell growth at 30 uM incubated for 48 hrs by sulforhodamine B assay relative to control; settings: SK-MEL-5, 48 h, read-out: Activity
[12] = tested on: NCI/ADR-RES; test: Growth inhibition of human NCI/ADR-RES cells assessed as cell growth at 30 uM incubated for 48 hrs by sulforhodamine B assay relative to control; settings: read-out: Activity
[13] = tested on: SN12C; test: Growth inhibition of human SN12C cells assessed as cell growth at 30 uM incubated for 48 hrs by sulforhodamine B assay relative to control; settings: read-out: Activity
[14] = tested on: MCF7; test: Growth inhibition of human MCF7 cells assessed as cell growth at 30 uM incubated for 48 hrs by sulforhodamine B assay relative to control; settings: MCF7, 48 h, read-out: Activity
[15] = tested on: MDA-MB-468; test: Growth inhibition of human MDA-MB-468 cells incubated for 48 hrs by sulforhodamine B assay; settings: MDA-MB-468, 48 h
[16] = tested on: HL-60(TB); test: Growth inhibition of human HL-60(TB) cells assessed as cell growth at 0.01 uM incubated for 48 hrs by sulforhodamine B assay relative to control; settings: HL-60, 48 h, read-out: Activity
[17] = tested on: A549; test: Growth inhibition of human A549/ATCC cells assessed as cell growth at 0.01 uM incubated for 48 hrs by sulforhodamine B assay relative to control; settings: A549, 48 h, read-out: Activity
[18] = tested on: NCI-H23; test: Growth inhibition of human NCI-H23 cells assessed as cell growth at 0.01 uM incubated for 48 hrs by sulforhodamine B assay relative to control; settings: NCI-H23, 48 h, read-out: Activity
[19] = tested on: SF-268; test: Growth inhibition of human SF268 cells assessed as cell growth at 0.01 uM incubated for 48 hrs by sulforhodamine B assay relative to control; settings: SF-268, 48 h, read-out: Activity
[20] = tested on: SF-539; test: Growth inhibition of human SF539 cells assessed as cell growth at 0.01 uM incubated for 48 hrs by sulforhodamine B assay relative to control; settings: SF-539, 48 h, read-out: Activity
[21] = tested on: UO-31; test: Growth inhibition of human UO31 cells assessed as cell growth at 0.01 uM incubated for 48 hrs by sulforhodamine B assay relative to control; settings: UO-31, 48 h, read-out: Activity
[22] = tested on: T47D; test: Growth inhibition of human T47D cells assessed as cell growth at 0.01 uM incubated for 48 hrs by sulforhodamine B assay relative to control; settings: read-out: Activity
[23] = tested on: COLO 205; test: Growth inhibition of human COLO205 cells assessed as cell growth at 0.1 uM incubated for 48 hrs by sulforhodamine B assay relative to control; settings: COLO 205, 48 h, read-out: Activity
[24] = tested on: RXF 393; test: Growth inhibition of human RXF393 cells assessed as cell growth at 0.1 uM incubated for 48 hrs by sulforhodamine B assay relative to control; settings: RXF 393, 48 h, read-out: Activity
[25] = tested on: DU-145; test: Growth inhibition of human DU145 cells assessed as cell growth at 0.1 uM incubated for 48 hrs by sulforhodamine B assay relative to control; settings: DU-145, 48 h, read-out: Activity
[26] = tested on: SR; test: Growth inhibition of human SR cells assessed as cell growth at 1 uM incubated for 48 hrs by sulforhodamine B assay relative to control; settings: read-out: Activity
[27] = tested on: NCI-H460; test: Growth inhibition of human NCI-H460 cells assessed as cell growth at 1 uM incubated for 48 hrs by sulforhodamine B assay relative to control; settings: NCI-H460, 48 h, read-out: Activity
[28] = tested on: 786-0; test: Growth inhibition of human 786-0 cells assessed as cell growth at 1 uM incubated for 48 hrs by sulforhodamine B assay relative to control; settings: 786-0, 48 h, read-out: Activity
[29] = tested on: T47D; test: Growth inhibition of human T47D cells assessed as cell growth at 1 uM incubated for 48 hrs by sulforhodamine B assay relative to control; settings: read-out: Activity
[30] = tested on: MOLT-4; test: Growth inhibition of human MOLT4 cells assessed as cell growth at 10 uM incubated for 48 hrs by sulforhodamine B assay relative to control; settings: MOLT-4, 48 h, read-out: Activity
[31] = tested on: NCI-H226; test: Growth inhibition of human NCI-H226 cells assessed as cell growth at 10 uM incubated for 48 hrs by sulforhodamine B assay relative to control; settings: NCI-H226, 48 h, read-out: Activity
[32] = tested on: MCF7; test: Growth inhibition of human MCF7 cells assessed as cell growth at 10 uM incubated for 48 hrs by sulforhodamine B assay relative to control; settings: MCF7, 48 h, read-out: Activity
[33] = tested on: RPMI-8226; test: Growth inhibition of human RPMI8226 cells assessed as cell growth at 100 uM incubated for 48 hrs by sulforhodamine B assay relative to control; settings: RPMI-8226, 48 h, read-out: Activity
[34] = tested on: U-251; test: Growth inhibition of human U251 cells assessed as cell growth at 100 uM incubated for 48 hrs by sulforhodamine B assay relative to control; settings: U-251, 48 h, read-out: Activity

SMILES	growth at 0.003 µM [1]	growth at 0.03 µM [2]	growth at 0.3 µM [3]	growth at 0.3 µM [4]	growth at 3 µM [5]	growth at 3 µM [6]	growth at 3 µM [7]	growth at 3 µM [8]	growth at 30 µM [9]	growth at 30 µM [10]	growth at 30 µM [11]	growth at 30 µM [12]	growth at 30 µM [13]	growth at 30 µM [14]	GI50 [15]	TGI [15]	growth at 0.01 µM [16]	growth at 0.01 µM [17]	growth at 0.01 µM [18]	growth at 0.01 µM [19]	further results
COc1cc2cc(Oc3ccc(NC(=O)Nc4ccc(Cl)c(C(F)(F)F)c4)cc3)c(C)nc2cc1OC	107%	93%	91%	91%	-2%	-67%	-29%	-17%	-49%	-46%	-97%	-39%	-56%	-79%	–	–	–	–	–	–	–
COc1cc2cc(Oc3ccc(NC(=O)Nc4cc(C(F)(F)F)cc(C(F)(F)F)c4)cc3)c(C)nc2cc1OC	–	–	–	–	–	–	–	–	–	–	–	–	–	–	1.08 µM	3.96 µM	89%	101%	99%	97%	growth at 0.01 µM [20]: 92%; growth at 0.01 µM [21]: 82%; growth at 0.01 µM [22]: 86%; growth at 0.1 µM [23]: 100%; growth at 0.1 µM [24]: 99%; growth at 0.1 µM [25]: 100%; growth at 1 µM [26]: 69%; growth at 1 µM [27]: 49%; growth at 1 µM [28]: 87%; growth at 1 µM [29]: 64%; growth at 10 µM [30]: -36%; growth at 10 µM [31]: -60%; growth at 10 µM [32]: -59%; growth at 100 µM [33]: -34%; growth at 100 µM [34]: -83%
COc1cc2cc(Oc3ccc(NC(=O)Nc4ccc(Cl)c(Cl)c4)cc3)c(C)nc2cc1OC	–	–	–	–	–	–	–	–	–	–	–	–	–	–	–	–	104%	96%	98%	103%	growth at 0.01 µM [20]: 101%; growth at 0.01 µM [21]: 96%; growth at 0.01 µM [22]: 100%; growth at 0.1 µM [23]: 107%; growth at 0.1 µM [24]: 111%; growth at 0.1 µM [25]: 110%; growth at 1 µM [26]: 98%; growth at 1 µM [27]: 82%; growth at 1 µM [28]: 86%; growth at 1 µM [29]: 88%; growth at 10 µM [30]: 7%; growth at 10 µM [31]: -7%; growth at 10 µM [32]: 8%; growth at 100 µM [33]: -47%; growth at 100 µM [34]: -100%
Cc1nc2cc(O)c(O)cc2cc1Oc1ccc(NC(=O)Nc2ccc(Cl)c(Cl)c2)cc1	104%	98%	98%	90%	76%	85%	107%	100%	9%	7%	-47%	3%	-3%	1%	6.99 µM	17.4 µM	–	–	–	–	CC50 ([15]; read-out: LC50 (the source's name)): > 32.5 µM

Source: ChEMBL document CHEMBL3994622, “Design and synthesis of new RAF kinase-inhibiting antiproliferative quinoline derivatives. Part 2: Diarylurea derivatives” (Eur J Med Chem, 2017)
